# Measured values published in patent US10899747B2, “Biaryl piperidine amide compounds and methods of use thereof” (Athenex, Inc., priority 2017, dated 2021).
# Tested on: IL-2
# Experiment: PHA-IL2 (cell activation and cytokine analysis)
# Assay type: cell-based
# Settings: 50% inhibition concentration class
# Experimental: Cells to be tested may include, but are not limited to, a) Jurkat (a transformed human T cell leukemia), b) whole blood isolated from human or rodent sources, c) peripheral blood mononuclear cells (PBMC) freshly isolated from human or rodent whole blood, or d) purified fractions of PBMC (e.g., CD4 T cells). Cells are plated in 96-well plates at a final density of 1.0-2.0×10^6 cells/ml in 150 ul of assay medium (RPMI+0.5% fetal calf serum). Test compounds are included at a final concentration of ≤20 uM and generally pre-incubated with cells for 30 minutes prior to stimulation. An appropriate stimulus is added, including but not limited to, a) phytohemagglutinin (PHA), b) phorbol myristate acetate (PMA) and ionomycin, or c) stimulatory antibodies to the T cell receptor (TCR) complex (e.g., anti-CD3ε) and CD28. Cell cultures are stimulated for 24-48 hours in a humidified incubator (37 degrees C./5% CO2). A fraction of the culture supernatant is than harvested from each well and assayed for the presence of appropriate cytokine using standard ELISA. Cytokines to be analyzed may include IL-2, IL-4, IL-10, IL-17, IL-22, IFNγ, and/or TNFα. If required, the number of cytokine producing cells can be determined using intracellular staining and flow cytometry. […]
row,Compound,IC50
1,COc1cccc(-c2ccccc2OCC(=O)N2CCC(CCc3ccc4c(c3)OCO4)CC2)c1OC [Compound 241],< 1000 nM
2,COc1c(F)cc(F)cc1-c1ccccc1OCC(=O)N1CCC(CCc2ccc3c(c2)OCO3)CC1 [Compound 242],1000 to 10000 nM
3,CC(C)Oc1cccc(-c2ccccc2OCC(=O)N2CCC(CCc3ccc4c(c3)OCO4)CC2)c1 [Compound 243],1000 to 10000 nM
4,CCCOc1cccc(-c2ccccc2OCC(=O)N2CCC(CCc3ccc4c(c3)OCO4)CC2)c1 [Compound 244],1000 to 10000 nM
5,CC(C)COc1cccc(-c2ccccc2OCC(=O)N2CCC(CCc3ccc4c(c3)OCO4)CC2)c1 [Compound 245],1000 to 10000 nM
6,CCCCOc1cccc(-c2ccccc2OCC(=O)N2CCC(CCc3ccc4c(c3)OCO4)CC2)c1 [Compound 246],1000 to 10000 nM
7,O=C(COc1ccccc1-c1ccncc1)N1CCC(CCc2ccc3c(c2)OCO3)CC1 [Compound 247],1000 to 10000 nM
8,Cc1cc(F)ncc1-c1ccccc1OCC(=O)N1CCC(CCc2ccc3c(c2)OCO3)CC1 [Compound 248],10000 to 50000 nM
9,O=C(COc1ccccc1-c1ccc2[nH]ncc2c1)N1CCC(CCc2ccc3c(c2)OCO3)CC1 [Compound 249],< 1000 nM
10,C#Cc1ccc(-c2ccccc2OCC(=O)N2CCC(CCc3ccc4c(c3)OCO4)CC2)cc1 [Compound 250],< 1000 nM
11,N#Cc1ccc(-c2ccccc2OCC(=O)N2CCC(CCc3ccc4c(c3)OCO4)CC2)c(F)c1 [Compound 251],< 1000 nM
12,Nc1ccc(/C=C/C2CCN(C(=O)COc3ccccc3-c3ccccc3)CC2)cn1 [Compound 252],10000 to 50000 nM
13,O=C(COc1ccccc1-c1ccccc1)N1CCC(/C=C/c2ccc3c(c2)OCO3)CC1 [Compound 253],< 1000 nM
14,O=C1COc2ccc(CCC3CCN(C(=O)COc4ccccc4-c4ccccc4)CC3)cc2N1 [Compound 254],1000 to 10000 nM
15,Nc1ccc(CCC2CCN(C(=O)COc3ccccc3-c3ccccc3)CC2)cn1 [Compound 255],1000 to 10000 nM
16,CC1Oc2ccc(CCC3CCN(C(=O)COc4ccccc4-c4ccccc4)CC3)cc2OC1C (stereo not drawn) [Compound 256],< 1000 nM
17,N#Cc1ccc(-c2ccccc2OCC(=O)N2CCC(CCc3ccc4c(c3)NC(=O)CO4)CC2)cc1 [Compound 257],1000 to 10000 nM
18,O=C1COc2ccc(CCC3CCN(C(=O)COc4ccccc4-c4ccc(F)cc4)CC3)cc2N1 [Compound 258],1000 to 10000 nM
19,O=C1COc2ccc(CCC3CCN(C(=O)COc4ccccc4-c4ccc(Cl)nc4)CC3)cc2N1 [Compound 259],< 1000 nM
20,O=C(C1CC1c1cc2c(cc1-c1ccccc1)OCO2)N1CCC(CCc2ccc3c(c2)OCO3)CC1 (stereo not drawn) [Compound 260],< 1000 nM
21,O=C(COc1ccccc1-c1ccccc1)N1CCC(CCCc2ccccc2)CC1 [Compound 261],1000 to 10000 nM
22,Cc1cc(F)ccc1-c1ccccc1OCC(=O)N1CCC(CCc2ccc3c(c2)OCO3)CC1 [Compound 262],1000 to 10000 nM
23,CC1Oc2ccc(CCC3CCN(C(=O)COc4ccccc4-c4ccc(C#N)cc4)CC3)cc2OC1C (stereo not drawn) [Compound 263],< 1000 nM
24,CC1Oc2ccc(CCC3CCN(C(=O)COc4ccccc4-c4ccc(F)cc4)CC3)cc2OC1C (stereo not drawn) [Compound 264],< 1000 nM

row,Compound,IC50
1,CC1Oc2ccc(CCC3CCN(C(=O)COc4ccccc4-c4ccc(Cl)nc4)CC3)cc2OC1C (stereo not drawn) [Compound 265],< 1000 nM
2,O=C(COc1ccccc1-c1ccc(F)nc1)N1CCC(CCc2ccc3c(c2)OCCCO3)CC1 [Compound 266],< 1000 nM
3,O=C(COc1ccccc1-c1ccc2[nH]ncc2c1)N1CCC(CCc2ccc3c(c2)OCCCO3)CC1 [Compound 267],< 1000 nM
4,CC1Oc2ccc(CCC3CCN(C(=O)COc4ccccc4-c4ccc5[nH]ncc5c4)CC3)cc2OC1C (stereo not drawn) [Compound 268],< 1000 nM
5,N#Cc1ccc(-c2ccccc2OCC(=O)N2CCC(CCc3ccccc3)CC2)cc1 [Compound 269],< 1000 nM
6,O=C(COc1ccccc1-c1ccc(F)cc1)N1CCC(CCc2ccccc2)CC1 [Compound 270],1000 to 10000 nM
7,O=C(COc1ccccc1-c1ccc(Cl)nc1)N1CCC(CCc2ccccc2)CC1 [Compound 271],< 1000 nM
8,O=C(COc1ccccc1-c1ccc2[nH]ncc2c1)N1CCC(CCc2ccccc2)CC1 [Compound 272],< 1000 nM
9,CCc1ccc(OCC(=O)N2CCC(CCc3ccc4c(c3)OCO4)CC2)c(-c2ccc(F)cc2)c1 [Compound 273],1000 to 10000 nM
10,CCc1ccc(OCC(=O)N2CCC(CCc3ccc4c(c3)OCO4)CC2)c(-c2ccc(C#N)cc2)c1 [Compound 274],1000 to 10000 nM
11,CCc1ccc(OCC(=O)N2CCC(CCc3ccc4c(c3)OCO4)CC2)c(-c2ccc(Cl)nc2)c1 [Compound 275],1000 to 10000 nM
12,CCc1ccc(OCC(=O)N2CCC(CCc3ccc4c(c3)OCO4)CC2)c(-c2ccccc2)c1 [Compound 276],< 1000 nM
13,CCc1ccc(OCC(=O)N2CCC(CCc3ccc4c(c3)OCO4)CC2)c(-c2ccc3[nH]ncc3c2)c1 [Compound 277],< 1000 nM
14,CC1Oc2ccc(CCC3CCN(C(=O)COc4ccccc4-c4ccccc4O)CC3)cc2OC1C (stereo not drawn) [Compound 278],< 1000 nM
15,N#Cc1ccc(-c2ccccc2OCC(=O)N2CCC(CCc3ccc(O)cc3)CC2)cc1 [Compound 279],< 1000 nM
16,O=C(COc1ccccc1-c1ccc(F)cc1)N1CCC(CCc2ccc(O)cc2)CC1 [Compound 280],< 1000 nM
17,O=C(COc1ccccc1-c1ccc2[nH]ncc2c1)N1CCC(CCc2ccc(O)cc2)CC1 [Compound 281],< 1000 nM
18,O=C(COc1ccccc1-c1ccccc1O)N1CCC(CCc2ccc(O)cc2)CC1 [Compound 282],< 1000 nM
19,O=C(COc1ccccc1-c1ccc(Cl)nc1)N1CCC(CCc2ccc(O)cc2)CC1 [Compound 283],< 1000 nM
20,O=C1NCCOc2ccc(CCC3CCN(C(=O)COc4ccccc4-c4ccccc4)CC3)cc21 [Compound 284],< 1000 nM
21,O=C(COc1ccccc1-c1ccccc1)N1CCC(CCc2cc3c(cc2CO)OCO3)CC1 [Compound 285],1000 to 10000 nM
22,O=C(CSc1ccccc1-c1ccccc1)N1CCC(CCc2ccc3c(c2)OCO3)CC1 [Compound 286],1000 to 10000 nM
23,COc1cccc(CCC2CCN(C(=O)CSc3ccccc3-c3ccccc3)CC2)c1 [Compound 287],1000 to 10000 nM
24,O=C(COc1ccccc1-c1ccc(F)cc1O)N1CCC(CCc2ccc3c(c2)OCO3)CC1 [Compound 288],< 1000 nM

row,Compound,IC50
1,N#Cc1ccc(-c2ccccc2OCC(=O)N2CCC(CCc3ccc4c(c3)OCO4)CC2)cn1 [Compound 289],< 1000 nM
2,COC(=O)c1ccc(CCC2CCN(C(=O)COc3ccccc3-c3ccc(C#N)cc3)CC2)cc1 [Compound 290],< 1000 nM
3,N#Cc1ccc(-c2ccccc2OCC(=O)N2CCC(CCc3ccc4c(c3)OCCO4)CC2)cc1 [Compound 291],< 1000 nM
4,O=C(COc1ccccc1-c1ccc(Cl)nc1)N1CCC(CCc2ccc3c(c2)OCCO3)CC1 [Compound 292],1000 to 10000 nM
5,O=C(COc1ccccc1-c1ccc2[nH]ncc2c1)N1CCC(CCc2ccc3c(c2)OCCO3)CC1 [Compound 293],< 1000 nM
6,O=C(COc1ccccc1-c1ccc(F)cc1)N1CCC(CCc2ccc3c(c2)OCCO3)CC1 [Compound 294],1000 to 10000 nM
7,O=C(COc1ccccc1-c1ccccc1O)N1CCC(CCc2ccc3c(c2)OCCO3)CC1 [Compound 295],1000 to 10000 nM
8,O=C(COc1ccccc1-c1ccc(F)cc1O)N1CCC(CCc2ccc3c(c2)OCCO3)CC1 [Compound 296],< 1000 nM
9,N#Cc1ccc(-c2ccccc2OCC(=O)N2CCC(CCc3ccc4c(c3)OCCO4)CC2)cn1 [Compound 297],< 1000 nM
10,Cc1cc2c(cc1CCC1CCN(C(=O)COc3ccccc3-c3ccc(C#N)cc3)CC1)OCO2 [Compound 298],< 1000 nM
11,N#Cc1ccc(-c2ccccc2OCC(=O)N2CCC(CCc3cccc4c3OCO4)CC2)cc1 [Compound 299],< 1000 nM
12,CCCOc1ccc(CCC2CCN(C(=O)COc3ccccc3-c3ccc(C#N)cc3)CC2)cc1OCCC [Compound 300],< 1000 nM
13,CC(C)Oc1ccc(CCC2CCN(C(=O)COc3ccccc3-c3ccc(C#N)cc3)CC2)cc1OC(C)C [Compound 301],< 1000 nM
14,CC1CC(CCc2ccccc2)CCN1C(=O)COc1ccccc1-c1ccc(C#N)cc1 (stereo not drawn) [Compound 302],< 1000 nM
15,CC1CC(CCc2ccccc2)CCN1C(=O)COc1ccccc1-c1ccc(F)cc1O (stereo not drawn) [Compound 303],1000 to 10000 nM
16,COc1cccc(CCC2CCN(C(=O)COc3ccccc3-c3ccc(F)cc3O)CC2)c1 [Compound 304],< 1000 nM
17,O=C(COc1ccccc1-c1ccc(F)cc1O)N1CCC(CCc2ccc(N3CCOCC3)cc2)CC1 [Compound 305],< 1000 nM
18,Cc1ccc(F)cc1CCC1CCN(C(=O)COc2ccccc2-c2ccc(F)cc2O)CC1 [Compound 306],< 1000 nM
19,O=C(COc1ccccc1-c1ccc(F)cc1O)N1CCC(CCc2ccc(F)c(C(F)(F)F)c2)CC1 [Compound 307],1000 to 10000 nM
20,COCc1ccc(CCC2CCN(C(=O)COc3ccccc3-c3ccc(F)cc3O)CC2)cc1 [Compound 308],< 1000 nM
21,CCOc1ccc(CCC2CCN(C(=O)COc3ccccc3-c3ccc(F)cc3O)CC2)cc1 [Compound 309],< 1000 nM
22,O=C(COc1ccccc1-c1ccc(F)cc1O)N1CCC(CCc2cccc(C(F)(F)F)c2)CC1 [Compound 310],< 1000 nM
23,CCOc1ccc(CCC2CCN(C(=O)COc3ccccc3-c3ccc(C(=O)c4ccccc4)cc3)CC2)cc1 [Compound 311],< 1000 nM
24,O=C(C[S+]([O-])c1ccccc1-c1ccccc1)N1CCC(CCc2ccccc2)CC1 (stereo not drawn) [Compound 312],10000 to 50000 nM
